Test system: Mycobacterium tuberculosis
Test: Antimycobacterial activity against ethambutol/isoniazid/rifampicin-resistant Mycobacterium tuberculosis incubated for 7 days by rapid direct susceptibility test
Assay type: functional
Conditions: 168 h

Question: How did the MIC turn out when NNC(=O)c1ccncc1 [ISONIAZID] was run?
Answer: Its MIC is over 128 µg/mL.
